The values that follow come from a melting point compilation (Tetko et al.; mined from patent text by program, amines drawn as free bases though some values may be those of a salt).

Bounds are passed on as bounds.

In general, melting point refers to the temperature, or range, at which the solid turns liquid.

Compound `COc1c(N2C[C@H]3CCOC[C@@]3(N)C2)c(F)cc2c(=O)c(C(=O)O)cn([C@@H]3C[C@@H]3F)c12` gave a melting point of 132 to 134 °C.

Compound `CC(C)OC(=O)C(C)Oc1ccc(COc2ccc(Cl)cc2)cc1` (stereo not drawn) had a melting point of 81 °C.

Compound `O=C(O)CCC1(NC(=O)c2ccc(Cl)c(Cl)c2)C(=O)N(CCCc2ccccc2)c2ccccc21` (stereo not drawn) registered a melting point of 242 to 243 °C.

`Cc1ccc2cc(-c3ccc4c(c3)C(C)(C)CCC4(C)C)ccc2c1`: the melting point fell in the range of 173 to 175 °C.

As for `COc1ccc(CCc2ccc(NC(=O)C(=O)c3cc(Cl)ccc3O)cc2)cc1OC`, the melting point was in the range of 128 to 130 °C.

Consider `CCc1nc2c(-c3ccc(OC(F)(F)F)cc3Cl)ncnc2n1C(C1CC1)C1CC1`, for which the melting point lay in the range of 119 to 120 °C.

`Cc1coc2ncnc(N)c12` displayed a melting point of 240 to 242 °C.

Turning to `COc1ccc(Cl)cc1CN(CCO)c1ncnc2c1ncn2C1OC(CO)C(O)C1O` (stereo not drawn), the melting point was 98 to 100 °C.

For `COc1cccc(-c2cn(-c3ccc(C(=O)O)cc3)nn2)c1`, the melting point lay within 276 to 277 °C.

In turn, `CC(C)C(=O)Nc1c(Cl)cccc1C(=O)Nc1ccc(OC(F)(F)F)cc1` returned a melting point of 230 to 233 °C.

As for `COC(=O)C(C)CC(=O)C(Cc1ccccc1)NC(=O)c1ccccc1` (stereo not drawn), the melting point lay within 97 to 98.5 °C.

`CCCC(=O)c1cnc2c(OCCCN3CCCC3)cccc2c1Nc1ccccc1C` came in with a melting point of 101 to 103 °C.

The compound `Cc1ccc(-c2ccc3c(c2)C=C(C(=O)Nc2ccc(CN(CCO)CCO)cc2)CC3)cc1` displayed a melting point of 150 to 151 °C.

Consider `Cn1cc(C2=C(c3cn(CCCNC(N)=O)c4ccccc34)C(=O)NC2=O)c2ccccc21`, for which the melting point lay in the range of 248 to 250 °C.

In turn, `NC(=O)c1nc(-c2ccccc2)c[nH]1` came in with a melting point of 210 to 211 °C.

Regarding `CS(=O)(=O)c1ccc(-c2ccc(C3C(CCC(O)c4ccc(F)cc4)C(=O)N3c3ccc(F)cc3)cc2)cc1` (stereo not drawn), the melting point was found to be 111 °C.

Regarding `CCn1c(=O)c2[nH]c(/C=C/c3ccccc3F)nc2n(CC)c1=O`, the melting point was above 270 °C.

As to `O=C(O)C(=O)c1ccc2c(c1)OCO2`, the melting point was 144 to 146 °C.

Consider `CC(C)(CNC=O)c1ccc2nc(C3CCNCC3)[nH]c2c1`, for which the melting point is 234 to 237 °C.

As for `CC1COC2(CCN(c3nc(=O)c4cc(C#N)cc([N+](=O)[O-])c4s3)CC2)O1` (stereo not drawn), the melting point is 251 to 253 °C.

In the case of `CC(=O)Nc1ccccc1NS(=O)(=O)c1cc(C(=O)O)cc(NCc2ccccc2)c1Oc1ccccc1`, the melting point was 197 to 200 °C.

In turn, `O=C(Cc1ccc(F)cc1)c1c(O)c2cccnc2n(-c2ccccc2)c1=O` displayed a melting point of 185 to 187 °C.

In turn, `O[C@@H]1COC[C@H]1Oc1nc(N2CCNCC2)nc2ccccc12` (relative stereo) came in with a melting point of 148 to 154 °C.

Regarding `COC(=O)C(=O)N(N=C(C#N)c1ccc(C#N)cc1)c1c(Cl)cc(C(F)(F)F)cc1Cl`, the melting point was 194 to 195 °C.

As for `CN(C)C=Cc1[nH]c(=O)ccc1C(=O)c1ccco1`, the melting point fell in the range of 238 to 240 °C.

As to `O=C(NCC12CC3CC(CC(C3)C1)C2)c1cc(O)ccc1Cl`, the melting point was 263 to 264 °C.

`CS(=O)(=O)c1ccc(CN2CCN(C(=O)N3CCC(c4cn[nH]c4)C3)c3ccccc32)cc1` (stereo not drawn): the melting point turned out to be 239 °C.

Compound `CCOC(=O)C(=CNc1ccc(C2=NNC(=O)CC2)cc1)C(=O)OCC` showed a melting point of 164 °C.

`N#Cc1cc(C(=O)NNC(=O)c2occ(-c3ccccc3)c2-c2ccccc2)ccc1OC(=O)c1ccccc1` registered a melting point of 163 to 167 °C.

`CCOC(=O)c1ccc(NC(=O)c2sc3ccc(OC)cc3c2OC(C)C)nc1`: the melting point fell in the range of 131 to 133 °C.

For the compound `COc1cc(OC)c(-c2cccs2)cc1C#CC(=O)c1cc(OC)c(OCC(=O)O)c(OC)c1`, the melting point was in the range of 192 to 194 °C.

`c1ccc(Oc2cnccc2N2CCNCC2)cc1` showed a melting point of 74 to 77 °C.

Regarding `Cc1c(/C=C/c2cccc([N+](=O)[O-])c2C)cccc1[N+](=O)[O-]`, the melting point turned out to be 246 °C.
